Tests used:
[1] = tested on: fluconazole resistant C. albicans strain DSY735 biofilm; details: Table 2
[2] = tested on: fluconazole resistant C. albicans strain DSY551 biofilm; details: Table 2
[3] = MBIC of fluconazole in combination with ARAS

Compound: OC(Cn1cncn1)(Cn1cncn1)c1ccc(F)cc1F [FLU, fluconazole, reference compound]
- FBIC FLU [1, 3]: 4 µg/mL
- MBIC FLU ([1]; fluconazole alone): >64 µg/mL
- FBIC FLU [2, 3]: 2 µg/mL
- MBIC FLU ([2]; fluconazole alone): >64 µg/mL

From patent US20210379010A1, “COMPOSITIONS COMPRISING CANNABINOIDS FOR USE IN THE TREATMENT OF BIOFILM AND CONDITIONS ASSOCIATED WITH MICROBIAL, FUNGAL, BACTERIAL INFECTIONS” (Yissum Research Development Company of The Hebrew …, priority 2018, published 2021)
